Where a name gives a salt, the structure may show the parent alone. Read-outs that look alike come from different tables or passages of the source.
What was measured:
[1] = molecular target: T1, serotonin transporter (SERT) (Homo sapiens, UniProt P31645); assay: Fluorescent substrate uptake inhibition, SERT; type: cell-based; conditions: for inhibition at 10 µM: HEK293 cells expressing SERT
T1 construct: expressed in transfected cells; host or cells: HEK293

[2] = molecular target: T2, norepinephrine transporter (NET) (Homo sapiens, UniProt P23975); assay: Fluorescent substrate uptake inhibition, NET; type: cell-based; conditions: for inhibition at 10 µM: HEK293 cells expressing NET
T2 construct: expressed in transfected cells; host or cells: HEK293
T2 sequence (P23975 whole entry, species assumed): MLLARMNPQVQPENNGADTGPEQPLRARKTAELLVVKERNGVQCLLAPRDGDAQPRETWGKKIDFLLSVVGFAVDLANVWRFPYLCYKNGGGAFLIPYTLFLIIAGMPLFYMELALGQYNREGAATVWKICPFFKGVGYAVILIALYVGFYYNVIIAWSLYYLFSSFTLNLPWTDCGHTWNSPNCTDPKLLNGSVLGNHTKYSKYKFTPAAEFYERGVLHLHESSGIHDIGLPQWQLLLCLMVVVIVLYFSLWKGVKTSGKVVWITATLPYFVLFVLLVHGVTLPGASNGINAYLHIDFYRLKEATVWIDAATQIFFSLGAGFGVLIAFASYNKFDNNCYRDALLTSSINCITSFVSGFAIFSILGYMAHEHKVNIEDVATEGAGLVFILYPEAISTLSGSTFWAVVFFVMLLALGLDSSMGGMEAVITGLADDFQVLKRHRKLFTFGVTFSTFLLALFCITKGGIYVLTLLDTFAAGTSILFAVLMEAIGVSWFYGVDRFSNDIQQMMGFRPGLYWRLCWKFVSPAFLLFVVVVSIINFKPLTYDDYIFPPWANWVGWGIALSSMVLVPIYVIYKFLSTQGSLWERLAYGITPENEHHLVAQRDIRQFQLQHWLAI

[3] = Oral bioavailability in rats, Method B; type: in vivo; conditions: Sprague Dawley rats; for AUC(0-t) / half-life / Cmax: male, rat; for AUC(0-t) / half-life / Cmax / F: plasma, Method B; for F: 10 mg/kg
Protocol: Animals. Male Sprague Dawley rats were used in these studies. Animals were randomly assigned to treatment groups and were fasted overnight before oral dosing.
Drugs. Test compounds were dissolved in a vehicle consisting of normal saline (compounds 14R, 88R, 29rac, and 27rac) or a mixture of 5% v/v N-methyl-2-pyrrolidone, 5% v/v Solutol HS-15, and 90% v/v normal saline (compounds 84R and 84S). They were then administered intravenously (iv) or orally (po) at a dose of 10 mg/kg (calculated based on freebase) and at a volume of 5 mL/kg body weight. Compounds were tested as the racemates (indicated by “rac” nomenclature) or pure enantiomers (indicated by “R” or “S” nomenclature).
Sample Collection and Bioanalysis. Blood samples (approximately 120 μL) were collected under light isoflurane anesthesia (Surgivet®) from the retro orbital plexus at 0.08, 0.25, 0.5, 1, 2, 4, 8, and 24 h (total 8 time points/rat, 4 rats per administration route per compound). Immediately after blood collection, plasma was harvested by centrifugation at 4000 rpm for 10 min at 4° C. and samples were stored at −70±10° C. until bioanalysis. For bioanalysis, 25 μL aliquots of plasma study samples or spiked plasma calibration standards were added to individual pre-labeled micro-centrifuge tubes followed by 100 μL of an internal standard solution (glipizide, 500 ng/mL in acetonitrile) except for blanks, where 100 μL of acetonitrile was added. Samples were vortexed for 5 minutes and then centrifuged for 10 minutes at 4000 rpm at 4° C. Following centrifugation, 100 μL of each clear supernatant was transferred to a 96 well plate and analyzed with a fit-for-purpose LC-MS/MS method, with authentic samples of each analyte used for calibration and identification. In the case of compounds 14R and 88R, their metabolite 11R was also quantified in plasma samples.
Data Analysis. Pharmacokinetic parameters were estimated using the non-compartmental analysis tool of Phoenix® WinNonlin software (Ver 8.0).

[4] = Oral bioavailability in mice, Method A; type: in vivo; conditions: CD-1 mice; for F: 10 mg/kg; for half-life / Cmax / AUC(0-inf): male, mouse
Protocol: Animals. Male CD-1 mice were used in these studies Animals were randomly assigned to treatment groups and were fasted for 4 h before dosing.
Drugs. Test compounds were dissolved in normal saline (ketamine) or de-ionized water (other compounds) and administered intravenously (iv) or orally (po) at a dose of 10 mg/kg (calculated based on freebase) and at a volume of 5 mL/kg body weight. Compounds were tested as the racemates (indicated by “rac” nomenclature) or pure enantiomers (indicated by “R” or “S” nomenclature).
Sample Collection and Bioanalysis. Blood samples were collected under 2,2,2-tribromoethanol anesthesia (150 mg/kg, ip) from the orbital sinus at 0.083, 0.25, 0.5, 1, 2, 4, 8 and 24 h (4 animals per time point) into microcontainers containing K2EDTA Immediately after collection of blood, mice were euthanized by cervical dislocation and brain samples were collected at the same time points. All samples were immediately processed, flash-frozen, and stored at −70° C. until subsequent analysis. Plasma samples were separated by centrifugation of whole blood and aliquots (50 μL) were mixed with 200 μL of internal standard solution (400 ng/mL in 1:1 v/v CH3CN:MeOH). After mixing by pipetting and centrifuging for 4 min at 6000 rpm, 0.5 μL of each supernatant was analyzed for drug using a fit-for-purpose liquid chromatography-tandem mass spectrometry (LC-MS/MS) method, with authentic samples of each analyte used for calibration and identification. Brain samples (weight 100 mg±1 mg) were dispersed in 500 μL, of internal standard solution (400 ng/mL in 4:1 v/v MeOH:water) using zirconium oxide beads (115 mg±5 mg) in The Bullet Blender® homogenizer for 30 s at speed 8. After homogenization, the samples were centrifuged for 4 min at 14,000 rpm and 0.5 μL of each supernatant was analyzed for drug using a fit-for-purpose LC-MS/MS method, with authentic samples of each analyte used for calibration and identification.
Data Analysis. The drug concentrations of samples below the lower limit of quantitation (LLOQ) were designated as zero. Pharmacokinetic data analysis was performed using noncompartmental, bolus injection or extravascular input analysis models in WinNonlin 5.2 (PharSight). Data points below LLOQ were presented as missing to improve validity of t112 calculations.

[5] = 10 mg/kg iv, read-out: AUC0-last (iv) (converted)
[6] = 10 mg/kg iv, read-out: t1/2 (iv)
[7] = 10 mg/kg po, read-out: AUC0-last (po) (converted)
[8] = 10 mg/kg po, read-out: t1/2 (po)
[9] = calculated based on brain exposure
[10] = brain, 10 mg/kg iv, read-out: t1/2 (iv)
[11] = brain, 10 mg/kg po, read-out: t1/2 (po)
[12] = plasma, 10 mg/kg iv, read-out: AUC0-inf (iv) (converted)
[13] = plasma, 10 mg/kg iv, read-out: t1/2 (iv)
[14] = plasma, 10 mg/kg po, read-out: AUC0-inf (po) (converted)
[15] = plasma, 10 mg/kg po, read-out: t1/2 (po)
[16] = plasma, absolute oral bioavailability

T1 sequence (P31645 whole entry, species assumed): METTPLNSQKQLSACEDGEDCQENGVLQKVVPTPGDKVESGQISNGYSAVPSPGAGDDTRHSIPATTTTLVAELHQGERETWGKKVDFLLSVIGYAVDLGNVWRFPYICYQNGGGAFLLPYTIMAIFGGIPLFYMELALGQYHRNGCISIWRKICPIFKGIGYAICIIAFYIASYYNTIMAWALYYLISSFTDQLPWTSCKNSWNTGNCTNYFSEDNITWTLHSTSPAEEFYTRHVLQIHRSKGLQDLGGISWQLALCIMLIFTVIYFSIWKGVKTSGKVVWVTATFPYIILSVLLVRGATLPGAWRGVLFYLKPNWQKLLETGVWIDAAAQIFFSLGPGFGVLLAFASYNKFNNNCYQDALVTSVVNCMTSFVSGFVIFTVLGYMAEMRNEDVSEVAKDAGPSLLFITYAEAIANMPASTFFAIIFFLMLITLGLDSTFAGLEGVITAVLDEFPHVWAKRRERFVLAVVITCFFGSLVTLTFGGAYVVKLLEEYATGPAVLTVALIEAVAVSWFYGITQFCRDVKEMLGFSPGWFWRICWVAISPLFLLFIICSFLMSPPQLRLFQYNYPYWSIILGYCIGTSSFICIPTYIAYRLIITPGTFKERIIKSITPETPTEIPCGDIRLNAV

Row | SMILES | inhibition at 10 µM [1] [%] | inhibition at 10 µM [2] [%] | AUC(0-t) [3, 5] [ng·h/mL] | half-life [3, 6] [min] | Cmax ([3]; 10 mg/kg po) [ng/mL] | AUC(0-t) [3, 7] [ng·h/mL] | half-life [3, 8] [min] | F [3] [%] | IC50 [1] [nM] | further results
1 | Cc1ccccc1[C@]1(N)CCCCC1=O [Compound 114R, (R)-2-amino-2-(o-tolyl)cyclohexan-1-one] | 23.4 | 7.7 | – | – | – | – | – | – | – | –
2 | Cc1ccccc1[C@@]1(N)CCCCC1=O [Compound 114S, (S)-2-amino-2-(o-tolyl)cyclohexan-1-one] | -4 | 10.4 | – | – | – | – | – | – | – | –
3 | N[C@]1(c2ccccc2)CCCCC1=O [Compound 11S, (S)-2-amino-2-phenyl-cyclohexan-1-one] | -2.6 | 14.8 | – | – | – | – | – | – | – | –
4 | O=C1CCCCC1(c1ccccc1)N1CCCC1 (racemic) [Compound 27rac, 2-phenyl-2-(pyrrolidin-1-yl)cyclohexan-1-one] | 88.6 | 40.8 | 1710 | 97.2 | 197 | 563 | 145 | 33 | 450 | IC50 [2]: 4.9 µM
5 | O=C1CCCC[C@@]1(c1ccccc1)N1CCC1 [Compound 84S, (S)-2-(azetidin-1-yl)-2-phenyl-cyclohexan-1-one] | 91.9 | 34.9 | 482 | 46.2 | 69.8 | 77 | 37.2 | 16 | 940 | IC50 [2]: 29.7 µM
6 | CN[C@]1(c2ccccc2)CCCCC1=O [Compound 14S, (S)-2-(methylamino)-2-phenylcyclohexan-1-one] | 17 | 1.8 | – | – | – | – | – | – | 30600 | AUC0-inf (iv) ([4]; brain, 10 mg/kg iv): 507,000 ng*min/g; AUC0-inf (po) ([4]; brain, 10 mg/kg po): 166,000 ng*min/g; F [4, 9]: 33%; half-life [4, 10]: 127 min; Cmax ([4]; brain, 10 mg/kg po): 3480 ng/g; half-life [4, 11]: 104 min; AUC(0-inf) [4, 12]: 2180 ng·h/mL; half-life [4, 13]: 142 min; Cmax ([4]; plasma, 10 mg/kg po): 951 ng/mL; AUC(0-inf) [4, 14]: 993 ng·h/mL; half-life [4, 15]: 176 min; F [4, 16]: 45.5%
7 | COCCNC1(c2ccccc2)CCCCC1=O (racemic) [Compound 29rac, 2-((2-methoxyethyl)amino)-2-phenylcyclohexan-1-one] | – | – | 1710 | 66 | 321 | 353 | 69 | 21 | – | –
8 | [2H]C([2H])([2H])N[C@@]1(c2ccccc2)CCCCC1=O [Compound 88R, (R)-2-((methyl-d3)amino)-2-phenylcyclohexan-1-one] | 25.9 | 10.6 | 1670 | 59.4 | 393 | 335 | 45.6 | 20 | – | formation of the metabolite 11R compared to 14R after oral administration ([3]; 10 mg/kg po): reduced
9 | N[C@@]1(c2ccccc2)CCCCC1=O [Compound 11R, (R)-2-amino-2-phenyl-cyclohexan-1-one] | 0.19 | 10.4 | – | – | – | – | – | – | – | –
10 | O=C1CCCC[C@]1(c1ccccc1)N1CCC1 [Compound 84R, (R)-2-(azetidin-1-yl)-2-phenyl-cyclohexan-1-one] | 75.2 | 29.1 | 369 | 37.2 | 15.5 | 11.9 | 27 | 3 | 800 | IC50 [2]: 15.4 µM
11 | CN[C@]1(c2cccc(F)c2)CCCCC1=O [Compound 19S, (5)-2-(3-fluorophenyl)-2-(methylamino)cyclohexan-1-one] | 20.6 | 10.3 | – | – | – | – | – | – | – | –
12 | CNC1(c2ccccc2Cl)CCCCC1=O (racemic) [rac-ketamine, racemic ketamine, reference compound] | – | – | – | – | – | – | – | – | – | AUC0-inf (iv) ([4]; brain, 10 mg/kg iv): 97,000 ng*min/g; AUC0-inf (po) ([4]; brain, 10 mg/kg po): 6,030 ng*min/g; F [4, 9]: 6.2%; F [4, 16]: 15%
13 | CN[C@@]1(c2ccccc2)CCCCC1=O [Compound 14R, (R)-2-(methylamino)-2-phenylcyclohexan-1-one] | 19.3 | 1.7 | 1960 | 37.8 | 235 | 237 | 30.6 | 12 | 45500 | AUC0-inf (iv) ([4]; brain, 10 mg/kg iv): 548,000 ng*min/g; AUC0-inf (po) ([4]; brain, 10 mg/kg po): 192,000 ng*min/g; F [4, 9]: 35%; half-life [4, 10]: 716 min; Cmax ([4]; brain, 10 mg/kg po): 3640 ng/g; half-life [4, 11]: 44.1 min; AUC(0-inf) [4, 12]: 3520 ng·h/mL; half-life [4, 13]: 70.5 min; Cmax ([4]; plasma, 10 mg/kg po): 1700 ng/mL; AUC(0-inf) [4, 14]: 1410 ng·h/mL; half-life [4, 15]: 55.3 min; F [4, 16]: 40%
14 | CNC1(c2ccccc2)CCCCC1=O (racemic) [Compound 14rac, 2-(methylamino)-2-phenylcyclohexan-1-one hydrochloride] | – | – | – | – | – | – | – | – | – | AUC0-inf (iv) ([4]; brain, 10 mg/kg iv): 457,000 ng*min/g; AUC0-inf (po) ([4]; brain, 10 mg/kg po): 192,000 ng*min/g; F [4, 9]: 42%; half-life [4, 10]: 28.1 min; Cmax ([4]; brain, 10 mg/kg po): 3150 ng/g; half-life [4, 11]: 39.4 min; AUC(0-inf) [4, 12]: 1930 ng·h/mL; half-life [4, 13]: 33.7 min; Cmax ([4]; plasma, 10 mg/kg po): 930 ng/mL; AUC(0-inf) [4, 14]: 920 ng·h/mL; half-life [4, 15]: 42.3 min; F [4, 16]: 48%

Source: patent US11344510B2, “Arylcyclohexylamine derivatives and their use in the treatment of psychiatric disorders” (Gilgamesh Pharmaceuticals, Inc., priority 2019, dated 2022)
